From patent publication US10206955B2, “Compositions of ascorbic acid and bone morphogenetic protein 4 (BMP-4) for cell growth and uses related thereo” (EMORY UNIVERSITY, priority 2014, dated 2019)

Columns and labels:
[1] = test system: mouse tail-tip fibroblasts (MTTFs); experiment: Spontaneous contraction of miRNA-transfected MTTFs after adding AA and BMP4; assay type: cell-based; conditions: AA and BMP4 added one day after miR-transfection; between 4-6 days
Method: (§1) To enhance the reprogramming potential of miRNAs, AA and BMP4 were added one day after miR-transfection (FIG. 1A). Between 4-6 days, spontaneously contracting cells appeared in groups treated with […], miR-208b-3p, or miR-499-5p, but not with miR-208a-3p and miR-208b-5p or all miRNA. The latter groups were excluded from further experiments. To further confirm the results, MTTFs were isolated from aMHC-GFP reporter mice (aMHC-GFP-MTTFs) and quantified GFP+ cells after treating with […], miR-208b-3p, or miR-499-5p in combination with AA and BMP4. […] TNNT2+ cells occupied 1.8±0.6% of MTTFs treated with miR-208b-3p, AA and BMP4 by flow cytometry analyses. This reprogramming rate is smaller than the number of aMHC-GFP+ cells because TNNT2 is a more specific and mature marker for CMs.
(§2) Mouse tail-tip fibroblasts (MTTFs) isolated from 1-4 month old transgenic mice carrying a GFP reporter driven by αMHC or human ubiquitin C (UBC) promoters were cultured in DMEM/F-12 (Invitrogen) containing 10% FBS (Atlanta Biologicals), 1% Glutamax (Invitrogen), 1% non-essential amino acids (Invitrogen) and 1% Antibiotic-Antimycotic (Invitrogen). αMHC-GFP transgenic mice were kindly given by Dr. Mark Sussman (San Diego State University) and UBC-GFP mice (C57BL/6-Tg(UBC-GFP)30Scha/J) were purchased from the Jackson Laboratory. After 3-5 passages, MTTFs were frozen until use. MTTFs at 70-80% of confluence were transfected with a synthetic miRNA mimic (20 nM), miR-1a-2-5p (Qiagen, MSY0017047, 5′-[…]-3′)(SEQ ID NO: 135), miR-208a-3p (Qiagen, MSY0000520, 5′-[…]-3′)(SEQ ID NO: 136), miR-208b-3p (Qiagen, MSY0004939, 5′-[…]-3′)(SEQ ID NO: 1), miR-208b-5p (Qiagen, MSY0017280, 5′-[…]-3′)(SEQ ID NO: 137), miR-499-5p (Qiagen, MSY0003482, 5′-[…]-3′) (SEQ ID NO: 3) or Scramble-miR (Dharmacon, CN-001000-01-05) using Lipofectamine 2000 (Invitrogen), and cultured in advanced DMEM/F12 (Invitrogen) containing 5% FBS (Atlanta Biologicals), 0.5% Glutamax (Invitrogen), 0.5% non-essential amino acids and 1% Antibiotic-Antimycotic (Invitrogen) with or without AA (ascorbic acid, Sigma, 0.2 mM) and BMP4 (R&D Systems, 10 ng/ml) for fibroblast reprogramming. Cells on a culture dish spontaneously aggregated as a patch-like CMT on day 10. In the case of no spontaneous formation, the border of a culture dish was scratched and cells were lifted up with a pipette to expedite cell aggregation into a CMT.

[2] = test system: aMHC-GFP-MTTFs; experiment: Quantification of GFP+ cells in aMHC-GFP reporter MTTFs; assay type: cell-based, mouse; conditions: for GFP expression (aMHC-GFP): agent alone
Method: as §1
(§3) Mouse tail-tip fibroblasts (MTTFs) isolated from 1-4 month old transgenic mice carrying a GFP reporter driven by αMHC or human ubiquitin C (UBC) promoters were cultured in DMEM/F-12 (Invitrogen) containing 10% FBS (Atlanta Biologicals), 1% Glutamax (Invitrogen), 1% non-essential amino acids (Invitrogen) and 1% Antibiotic-Antimycotic (Invitrogen). αMHC-GFP transgenic mice were kindly given by Dr. Mark Sussman (San Diego State University) and UBC-GFP mice (C57BL/6-Tg(UBC-GFP)30Scha/J) were purchased from the Jackson Laboratory. After 3-5 passages, MTTFs were frozen until use. […]

[3] = test system: Myh6; experiment: mRNA expression of Myh6 (aMHC) in treated MTTFs; assay type: cell-based, mouse; conditions: miRNA with AA and BMP4
Method: as §1, §3

[4] = test system: mouse tail-tip fibroblasts (MTTFs); experiment: Reprogramming of MTTFs with miRNA mimics alone: CM gene expression, ACTN2 immunocytochemistry; assay type: cell-based; conditions: miRNA mimic alone, without AA and BMP4
Text: The reprogramming potential of muscle-specific miRNA mimics, miR-1a-2-5p, miR-208a-3p, miR-208b-3p, miR-208b-5p, and miR-499-5p was investigated in mouse tail-tip fibroblasts (MTTFs). […] Immunocytochemistry confirmed expression of a CM marker sarcomeric α-actinin (ACTN2) in single miRNA transfected cells. However ACTN2 expression was diffuse, sarcomeric organization was poor and spontaneously contracting cells were not observed in any miRNA transfected MTTFs.
as §3

[5] = test system: mouse tail-tip fibroblasts (MTTFs); experiment: qRT-PCR of lineage markers at day 6 (vascular-lineage reprogramming); assay type: cell-based; conditions: protocol with AA and BMP4
Method: as §2, with “Cells on a culture dish spontaneously aggregated as a patch-like CMT on day 10. In the case of no spontaneous formation, the border of a culture dish was scratched and cells were lifted up with a pipette to expedite cell aggregation into a CMT.” left out

## miR-208a-3p: synthetic miRNA mimic, Qiagen MSY0000520, 5′-AUAAGACGAGCAAAAAGCUUGU-3′ (SEQ ID NO: 136) (chemistry not given here)
[1]
  spontaneously contracting cells: not

## O=C1O[C@H]([C@@H](O)CO)C(O)=C1O [AA, (R)-5-((S)-1,2-dihydroxyethyl)-3,4-dihydroxyfuran-2(5H)-one, reference compound]
[2]
  GFP expression (aMHC-GFP): did not induce GFP expression

## miR-499-5p: synthetic miRNA mimic, Qiagen MSY0003482, 5′-UUAAGACUUGCAGUGAUGUUU-3′ (SEQ ID NO: 3) (listed as RNA, chemistry not given here; listed as Mus musculus)
[1]
  spontaneously contracting cells: appeared

## miR-1a-2-5p: synthetic miRNA mimic, Qiagen MSY0017047, 5′-ACAUACUUCUUUAUGUAGUACCCAUA-3′ (SEQ ID NO: 135) (chemistry not given here)
[1]
  spontaneously contracting cells: appeared
[3]
  mRNA expression of Myh6: increased trend

## miR-208b-3p: synthetic miRNA mimic, Qiagen MSY0004939, 5′-AUAAGACGAACAAAAGGUUUGU-3′ (SEQ ID NO: 1) (listed as RNA, chemistry not given here; listed as Mus musculus)
[4]
  expression of CM genes Mef2c, Nkx2-5, Gata4 and Myh6: most effective
[1]
  spontaneously contracting cells: appeared
[2]; miRNA in combination with AA and BMP4
  GFP expression (aMHC-GFP-positive cells) of MTTFs: 22.0±2.6%
[3]
  mRNA expression of Myh6: significantly increased
[5]
  expression of EC and SMC genes (qRT-PCR): increased expression

## miR-208b-5p: synthetic miRNA mimic, Qiagen MSY0017280, 5′-AAGCUUUUUGCUCGCGUUAUGU-3′ (SEQ ID NO: 137) (chemistry not given here)
[1]
  spontaneously contracting cells: not

B1: BMP4: secreted disulfide-linked homodimeric BMP-4, a TGF-beta superfamily ligand (R&D Systems) (protein, listed as Homo sapiens)
chain: SPKHHPQRSRKKNKNCRRHSLYVDFSDVGWNDWIVAPPGYQAFYCHGDCPFPLADHLNSTNHAIVQTLVNSVNSSIPKACCVPTELSAISMLYLDEYDKVVLKNYQEMVVEGCGCR
modifications: homodimer
[2]
  GFP expression (aMHC-GFP): did not induce GFP expression
